# Like-named read-outs stand apart in the source and are kept apart here.
# Experiments:
# [1] = Zeta potential of LHA510 particles with additives; format: physicochemical; details: dispersant deionized water
# Description: It was determined that NaCMC unexpectedly provide the 1H-indole-1-carboxamide with desired Zeta Potential. In particular, NaCMC creates repulsive forces between the particles of 1H-indole-1-carboxamide.
# [2] = Ocular tissue and plasma PK after repeated t.i.d. monocular dosing for 7 days; format: in vivo, pigmented rabbits; details: 2% t.i.d. 7 days
# Description: In the contralateral undosed eyes of the 2% t.i.d treatment group, N-(1-methyl-5-(trifluoromethyl)-1H-pyrazol-3-yl)-5-((6-((methylamino)methyl)pyrimidin-4-yl)oxy)-1H-indole-1-carboxamide exposure was lower with the AUClast values of 1260 ng*h/g in cornea, 293000 ng*h/g in RPE/choroid and 3640 ng*h/g in retina.
# PK parameters of 1H-indole-1-carboxamide in ocular tissues and plasma following repeated t.i.d. monocular OD dosing for 7 days of 2% N-(1-methyl-5-(trifluoromethyl)-1H-pyrazol-3-yl)-5-((6-((methylamino)methyl)pyrimidin-4-yl)oxy)-1H-indole-1-carboxamide formulation in pigmented rabbits employing suspension C-2 in Table B below.
# [3] = Solubility in 5% HP-β-CD at pH 4.5 versus pH 7 (Table II); format: physicochemical; details: for Solubility Enhancement (fold): compared to intrinsic solubility at pH 7
# From the text: Thus, depending upon the type of composition, the desired pH of the composition may be different. For compositions that include the cyclodextrin derivative, particularly the β-cyclodextrin derivative, γ-cyclodextrin derivative or combination thereof, and even more typically hydroxypropy-β-cyclodextrin, hydroxypropyl-γ-cyclodextrin or a combination thereof, the pH is preferably relatively low. The relatively low pH is typically at least 3.0, more typically at least 4.0 and even more typically at least 4.3, but is typically no greater than 5.5, more typically no greater than 5.0 and even more typically no greater than 4.7. It is also preferable that the pH of the composition be at least 4.0 but no greater than 5.0 and more preferably at least 4.3 but no greater than 4.7. Such compositions will typically be solutions in which the 1H-indole-1-carboxamide is dissolved.
# [4] = Solubility in 8% HP-γ-CD in acetate buffer with different pH adjustment agents (Table III); format: physicochemical
# [5] = Equilibrium solubility in HPβCD or HPγCD in acetate (first Table I); format: physicochemical; details: for solubility at 3 day: thermodynamic from solid, read-out: 1H-indole-1-carboxamide Solubility
# From the text: Hydroxypropyl-γ-cyclodextrin is preferred for dissolution of the 1H-indole-1-carboxamide.
# [6] = as above; format: physicochemical; details: for solubility at 3 day: thermodynamic from solid, read-out: 1H-indole-1-carboxamide Solubility; remark: listed apart in the source
# [7] = Ocular tissue and plasma PK after single unilateral topical dose; format: in vivo, pigmented NZW×NZR rabbits; details: pigmented NZW×NZR, rabbit, single unilateral 30 μL dose at 0.5%, 1% and 2%
# Description: A single unilateral dose (30 μL) of a preferred ophthalmic suspension composition (i.e., suspension C-2 in Example 3 below) of the present invention was dosed onto the right (OD) eye of pigmented NZW×NZR rabbits at 0.5%, 1%, and 2% N-(1-methyl-5-(trifluoromethyl)-1H-pyrazol-3-yl)-5-((6-((methylamino)methyl)pyrimidin-4-yl)oxy)-1H-indole-1-carboxamide.
# [8] = NZW×NZR (pigmented), rabbit, RPE/choroid of the dosed eye (OD), topical or ocular, 2 % formulation, RPE/Choroid OD (dosed eye)
# [9] = NZW×NZR (pigmented), rabbit, cornea of the dosed (OD) eye, topical or ocular, Cornea OD (dosed eye)
# [10] = NZW×NZR (pigmented), rabbit, cornea of the undosed (OS) eye, topical or ocular, Cornea OS (undosed eye)
# [11] = pigmented NZW×NZR, rabbit, RPE/choroid of the undosed (OS) eye, topical or ocular, RPE/Choroid OS (undosed eye)
# [12] = pigmented NZW×NZR, rabbit, retina of the dosed (OD) eye, topical or ocular, Retina OD (dosed eye)
# [13] = pigmented NZW×NZR, rabbit, retina of the undosed (OS) eye, topical or ocular, Retina OS (undosed eye)
structure (smiles),measurement,setting,value
"CNCc1cc(Oc2ccc3c(ccn3C(=O)Nc3cc(C(F)(F)F)n(C)n3)c2)ncn1 [LHA510, N-(1-methyl-5-(trifluoromethyl)-1H-pyrazol-3-yl)-5-((6-((methylamino)methyl)pyrimidin-4-yl)oxy)-1H-indole-1-carboxamide]",Zeta Potential,[1]; Additive: 10 mM NaCl,0.6 mV
same,Zeta Potential,[1]; Additive: 0.1% Pluronic F127,−1.09 mV
same,Zeta Potential,[1]; Additive: 0.5% Sodium CMC 7LF PH,−40.3 mV
same,Zeta Potential,[1]; Additive: 1% Pluronic F127,−0.962 mV
same,Zeta Potential,[1]; Additive: 1% Polyvinyl phosphoric acid (PVPA),−0.835 mV
same,Zeta Potential,[1]; Additive: 1% Povidone (PVP 29/32),0 mV
same,Zeta Potential,[1]; Additive: 1% Sodium CMC 7LF PH,−47.8 mV
same,Zeta Potential,[1]; Additive: 1% Vitamin E TPGS,−1.77 mV
same,Zeta Potential,[1]; Additive: None,−2.58 mV
same,plasma accumulation,[2],no evidence of plasma accumulation
same,AUClast Mean,"[2]; Cornea OD (dosed eye), Tlast = 96 h",317000 ng·h/g
same,AUClast Mean,"[2]; Cornea OS (undosed eye), Tlast = 96 h",1260 ng·h/g
same,Cmax,[2]; [8],6410 ng/g
same,Tmax,[2]; [8],0.5 h
same,Cmax,[2]; [9],32300 ng/g
same,Tmax,[2]; [9],1 h
same,Cmax,[2]; [10],47.5 ng/g
same,Tmax,[2]; [10],0 h
same,Tmax,"[2]; NZW×NZR (pigmented), rabbit, topical or ocular, Plasma",0.5 h
same,Cmax,"[2]; NZW×NZR (pigmented), rabbit, topical, Plasma",1.85 ng/mL
same,AUC(0-t),"[2]; NZW×NZR (pigmented), rabbit, topical, Plasma, Tlast = 96 h, read-out: AUClast Mean",5.12 ng·h/mL
same,AUClast Mean,"[2]; RPE/Choroid OD (dosed eye), Tlast = 96 h",453000 ng·h/g
same,AUClast Mean,"[2]; RPE/Choroid OS (undosed eye), Tlast = 96 h",293000 ng·h/g
same,local penetration in the dosed eyes as share of the total AUClast,[2]; RPE/choroid,37.1%
same,AUClast Mean,"[2]; Retina OD (dosed eye), Tlast = 96 h",8400 ng·h/g
same,AUClast Mean,"[2]; Retina OS (undosed eye), Tlast = 96 h",3640 ng·h/g
same,Cmax,[2]; [11],3950 ng/g
same,Tmax,[2]; [11],18 h
same,Cmax,[2]; [12],122 ng/g
same,Tmax,[2]; [12],18 h
same,Cmax,[2]; [13],67.2 ng/g
same,Tmax,[2]; [13],18 h
same,local penetration in the dosed eyes as share of the total AUClast,[2]; retina,56.7%
same,solubility,"[3]; 5% HP-β-CD in acetate buffer, aqueous with cosolvent or surfactant or cyclodextrin, 5% HP-β-CD/Acetate buffer/pH 4.5, final pH 4.64, read-out: 1H-indole-1-carboxamide Solubility",11700 µg/mL
same,solubility,"[3]; 5% HP-β-CD in phosphate buffer, aqueous with cosolvent or surfactant or cyclodextrin, 5% HP-β-CD/Phosphate buffer/pH 7, final pH 7.06, read-out: 1H-indole-1-carboxamide Solubility",1010 µg/mL
same,Solubility Enhancement (fold),[3]; 5% HP-β-CD/Acetate buffer/pH 4.5,1667 fold
same,Solubility Enhancement (fold),[3]; 5% HP-β-CD/Phosphate buffer/pH 7,144 fold
same,solubility,"[3]; pH 7, aqueous buffer, read-out: intrinsic solubility",~7 µg/mL
same,solubility,"[4]; pH 4.732, aqueous with cosolvent or surfactant or cyclodextrin, pH adjustment agent 1N Glucoronic acid, final pH 4.732, read-out: 1H-indole-1-carboxamide Solubility",36 mg/mL
same,solubility,"[4]; pH 4.872, aqueous with cosolvent or surfactant or cyclodextrin, pH adjustment agent 1N Citric acid, final pH 4.872, read-out: 1H-indole-1-carboxamide Solubility",6.88 mg/mL
same,solubility,"[4]; pH 4.887, aqueous with cosolvent or surfactant or cyclodextrin, pH adjustment agent 1N Acetic acid, final pH 4.887, read-out: 1H-indole-1-carboxamide Solubility",30.3 mg/mL
same,solubility,"[4]; pH 4.887, aqueous with cosolvent or surfactant or cyclodextrin, pH adjustment agent 1N Hydrochloric acid, final pH 4.887, read-out: 1H-indole-1-carboxamide Solubility",15.5 mg/mL
same,solubility,"[4]; pH 4.902, aqueous with cosolvent or surfactant or cyclodextrin, pH adjustment agent 1N Methanesulfonic acid, final pH 4.902, read-out: 1H-indole-1-carboxamide Solubility",32.6 mg/mL
same,solubility,"[4]; pH 4.955, aqueous with cosolvent or surfactant or cyclodextrin, pH adjustment agent 1N Lactic acid, final pH 4.955, read-out: 1H-indole-1-carboxamide Solubility",33 mg/mL
same,solubility,"[4]; pH 4.973, aqueous with cosolvent or surfactant or cyclodextrin, pH adjustment agent 1N Sulfuric acid, final pH 4.973, read-out: 1H-indole-1-carboxamide Solubility",35.6 mg/mL
same,solubility,"[4]; pH 5.014, aqueous with cosolvent or surfactant or cyclodextrin, pH adjustment agent 1N Phosphoric acid, final pH 5.014, read-out: 1H-indole-1-carboxamide Solubility",25.4 mg/mL
same,1H-indole-1-carboxamide Solubility,"[5]; 1% HPγCD in Acetate, pH 4.607, equilibrium solubility at day 3",9.09 mg/mL
same,1H-indole-1-carboxamide Solubility,"[5]; 2.5% HPγCD in Acetate, pH 4.555, equilibrium solubility at day 3",14.69 mg/mL
same,solubility at 3 day,"[5]; 2.5% HPγCD in acetate, pH 4.555, aqueous with cosolvent or surfactant or cyclodextrin, 2.5% HPγCD in Acetate, pH 4.555, equilibrium solubility at day 3",14.7 mg/mL
same,1H-indole-1-carboxamide Solubility,"[5]; 5% HPγCD in Acetate, pH 4.505, equilibrium solubility at day 3",22.34 mg/mL
same,solubility at 3 day,"[5]; 5% HPγCD in acetate, pH 4.505, aqueous with cosolvent or surfactant or cyclodextrin, 5% HPγCD in Acetate, pH 4.505, equilibrium solubility at day 3",21.9 mg/mL
same,1H-indole-1-carboxamide Solubility,"[5]; 8% HPγCD in Acetate, pH 4.580, equilibrium solubility at day 3",30.60 mg/mL
same,solubility at 3 day,"[5]; 10% HPγCD in acetate, pH 4.668, aqueous with cosolvent or surfactant or cyclodextrin, 10% HPγCD in Acetate, pH 4.668, equilibrium solubility at day 3",34.3 mg/mL
same,1H-indole-1-carboxamide Solubility,"[6]; 1% HPβCD in Acetate, pH 4.584, equilibrium solubility at day 3",7.28 mg/mL
same,solubility at 3 day,"[6]; 1% HPβCD in acetate, pH 4.584, aqueous with cosolvent or surfactant or cyclodextrin, 1% HPβCD in Acetate, pH 4.584, equilibrium solubility at day 3",7.5 mg/mL
same,solubility at 3 day,"[6]; 1% HPγCD in acetate, pH 4.607, aqueous with cosolvent or surfactant or cyclodextrin, 1% HPγCD in Acetate, pH 4.607, equilibrium solubility at day 3",9.28 mg/mL
same,1H-indole-1-carboxamide Solubility,"[6]; 2.5% HPβCD in Acetate, pH 4.606, equilibrium solubility at day 3",12.45 mg/mL
same,solubility at 3 day,"[6]; 2.5% HPβCD in acetate, pH 4.606, aqueous with cosolvent or surfactant or cyclodextrin, 2.5% HPβCD in Acetate, pH 4.606, equilibrium solubility at day 3",12.5 mg/mL
same,1H-indole-1-carboxamide Solubility,"[6]; 5% HPβCD in Acetate, pH 4.670, equilibrium solubility at day 3",15.93 mg/mL
same,solubility at 3 day,"[6]; 5% HPβCD in acetate, pH 4.67, aqueous with cosolvent or surfactant or cyclodextrin, 5% HPβCD in Acetate, pH 4.670, equilibrium solubility at day 3",19.6 mg/mL
same,1H-indole-1-carboxamide Solubility,"[6]; 8% HPβCD in Acetate, pH 4.530, equilibrium solubility at day 3",25.67 mg/mL
same,solubility at 3 day,"[6]; 8% HPβCD in acetate, pH 4.53, aqueous with cosolvent or surfactant or cyclodextrin, 8% HPβCD in Acetate, pH 4.530, equilibrium solubility at day 3",25.7 mg/mL
same,solubility at 3 day,"[6]; 8% HPγCD in acetate, pH 4.58, aqueous with cosolvent or surfactant or cyclodextrin, 8% HPγCD in Acetate, pH 4.580, equilibrium solubility at day 3",30.7 mg/mL
same,1H-indole-1-carboxamide Solubility,"[6]; 10% HPβCD in Acetate, pH 4.610, equilibrium solubility at day 3",30.57 mg/mL
same,solubility at 3 day,"[6]; 10% HPβCD in acetate, pH 4.61, aqueous with cosolvent or surfactant or cyclodextrin, 10% HPβCD in Acetate, pH 4.610, equilibrium solubility at day 3",30.6 mg/mL
same,1H-indole-1-carboxamide Solubility,"[6]; 10% HPγCD in Acetate, pH 4.668, equilibrium solubility at day 3",34.56 mg/mL
same,Tmax,[7]; RPE/choroid,18 to 48 h
same,Tmax,[7]; all ocular tissues and plasma except RPE/choroid,0.5 to 3 h

# Source: US10174006B2, “Topical aqueous ophthalmic compositions containing a 1H-indole-1-carboxamide derivative and use thereof for treatment of ophthalmic disease” (Novartis AG, priority 2013, dated 2019)
